Experimental data published in patent US9676793B2, “Co-crystals of 5-amino-2-oxothiazolo[4,5-d]pyrimidin-3(2H)-yl-5-hydroxymethyl tetrahydrofuran-3-yl acetate and methods for preparing and using the same” (Hoffmann-La Roche Inc., priority 2014, dated 2017).
Read-outs that look alike come from different tables or passages of the source. Marks after values point to notes of the source that are not given here.

How the values were obtained:
[1] = Hygroscopicity of co-crystals; type: physicochemical
[2] = Solid state stability by UPLC; type: physicochemical
Description: Solid state stability studies were performed by storing a test sample of the co-crystal at different temperatures and under conditions of different relative humidity for a period of one to three months. Stability was judged by Ultra performance liquid chromatography (UPLC) analysis of the test co-crystals. Percent degradation of API in a test sample of the co-crystal was calculated as follows: Co-crystals in accordance with the invention are fairly stable across the temperature range used in the study. […] Without ascribing to a particular theory, crystallinity may contribute to the stability of inventive co-crystals. Table 7 illustrates data from a stability of a Formula I glutaric acid co-crystal in accordance with the invention across a range of temperatures and in the presence of 75% relative humidity at 40° C. […] Further supporting the hypothesis that crystallinity contributes to increased stability was provided by comparing the amorphous form of the free base of a Formula I compound to the crystalline form of a Formula I compound as illustrated in Table 8.

[3] = BCS classification of co-crystals (aqueous solubility); type: physicochemical; settings: for BCS Class (Stahl et al): Table 10
[4] = Excipient compatibility assay (COMPASS), ternary mixtures; type: physicochemical; settings: glutaric acid co-crystal ternary mixtures
Description: Compatibility of the inventive co-crystals with pharmaceutically acceptable excipients was determined by the classic compatibility assay (COMPASS). According to this method, excipient compatibility was investigated by physically mixing the inventive glutaric acid co-crystals with a single pharmaceutical excipient so as to form a binary mixture or by physically mixing the inventive glutaric acid co-crystals with mixtures containing two or more excipients (ternary mixture). Each binary mixture contained 5% by weight of the Formula I compound, whereas the weight percent of the Formula I compound in a ternary mixture was 50%. The test mixtures were stored at 50° C. for 4 weeks or at a temperature of 40° C. and a relative humidity of 75% for 4 weeks.
The inventive co-crystals are compatible with fillers and/or excipients commonly used in the manufacture of pharmaceutical compositions. Table 4 illustrates the results of a compatibility study using ternary mixtures of the inventive glutaric acid co-crystal of the Formula I compound. Table 5 illustrates the results for a similar study using ternary mixtures of the tosylate salt of the Formula I compound.
Ternary mixtures comprising the inventive glutaric acid co-crystal or the tosylate salt of a Formula I compound contained the following excipients in proportions illustrated in Table 6 below.

[5] = Pharmacokinetic study after oral administration; type: in vivo, cynomolgus monkeys
Excerpt: Studies were undertaken to compare the pharmacokinetics (PK) of the glutaric acid co-crystal to the PK of the tosylate salt of the Formula I compound. A 3% solution of Blanose 7LF PM without preservatives was used to formulate the glutaric acid co-crystal and tosylate salt. Results from a pharmacokinetic study in cynomolgus monkeys indicate that the plasma concentration of the glutaric acid co-crystal was greater than the corresponding tosylate salt following oral administration of each compound.
In this study, each compound was administered orally at a dose of 10 mg/kg to cynomolgus monkeys. Following administration, blood was obtained from each test subject at 0 min, 60 min, 120 min and 180 minutes. After separating the plasma from whole blood an aliquot to each plasma sample was denature by the addition of 70% ethanol. The denatured protein was pelleted by centrifugation and the supernatant was collected and dried using a stream of dry nitrogen gas. The pellet thus obtained was re-constituted in water containing 0.1% formic acid and the re-constituted mixture was analyzed by UPLC using a HSS-T3 (high strength silica) column or an YMC TriartC-18 column. Gradient elution using a mixture of water containing 0.1% HCOOH (mobile phase-A) and acetonitrile containing 0.1% HCOOH (mobile phase-B) was employed for analysis of the pharmacokinetic (PK) samples.

HBV = assay: microbe, parasite or virus in culture
Description: Direct inhibition of viral replication was evaluated by monitoring the levels of secreted HBV DNA and the levels of HBV surface antigen (HBsAg) in cultures containing HBV infected HepaRG cells.
After three days incubation, the combined medium was replaced with differentiation medium and the cells were maintained in the differentiation medium for an additional 2 to 4 weeks. The differentiation medium was renewed every 2 to 3 days throughout the incubation period. Differentiated HepaRG cells (HepaRGd) display hepatocyte-like cell islands surrounded by monolayer of biliary-like cells. Prior to HBV infection and compound treatment, HepaRGd cells were seeded into collagen I coated 96-well plates (Gibco, Cat# A11428-03) at 50,000 to 60,000 cells per well. Cells were allowed to recover their differentiated phenotype in 96-well plates for at least 1 week after plating prior to HBV infection.
HBV inoculum was collected from HepG2.2.15 cultured cells, a cell line that supports HBV (genotype D, strain ayw) replication and virion secretion as disclosed in Sells M A., et al., PNAS, 84(4): 1005-1009. HepG2.2.15 cells were maintained in DMEM+GlutaMAX-I (Invitrogen) containing 1× Pen/Strep (Invitrogen), 10% FBS, and 0.25 mg/ml G-418 (Invitrogen) using hyperflasks (Corning) pre-coated with collagen I (BD Biosciences). Upon reaching confluency, HepG2.2.15 culture media was replaced with DMEM+GlutaMAX-I containing 1× Pen-Strep, 2.5% FBS, and 1% DMSO for 3 days and then replaced with DMEM+GlutaMAX-I containing 1× Pen-Strep and 1% DMSO. The 1% DMSO containing media was collected every 3 to 4 days over a two week period and HBV infectious virions and subviral particles were pelleted by ultracentrifugation through a 20% sucrose cushion in a Ti 45 Beckman rotor at 45,000 rpm for 3 hours at 4° C. The pellets were resuspended in WEM at a concentration of 10^8-10^9 genome equivalents (GE) per ml, determined by real time PCR as described below using a genotype D HBV containing plasmid DNA as an internal standard. To evaluate the infectivity of the inoculum, HepaRGd cells in 96-well plates were infected in differentiation medium containing 50 to 200 GE/cell and 4% PEG 8000 (PolyEthylene Glycol 8000, Sigma, Cat# P5413-500G) for 16 hr at 37° C. At the end of the infection, HBV inoculum was removed and cells were washed 3 times with differentiation medium. Differentiation medium was replenished every 2 to 3 days and HBV replication was monitored by measuring secreted HBV DNA, hepatitis B surface (HBsAg) and/or e (HBeAg) antigens.
HBsAg was detected from 50 μL of HBV infected HepaRG supernatants using the HBsAg chemiluminescence immunoassay (CLIA) kit following instructions as recommended by the manufacturer (Autobio Diagnostics Co., Zhengzhou, China). HBV DNA was extracted from 50 μL of HBV infected HepaRGd supernatants using the MagNA Pure 96 DNA and Viral NA Small Volume Kit (Roche, Cat#05 467 497 001). […] All PCR reactions were performed using the ViiA7 Real Time PCR system (Life Technologies).
Both direct and indirect inhibitory activity of HBV replication was measured. […] Aliquots of these reagents were added to independent wells of a 96-well culture plate containing HBV infected HepaRGd cells on day 4 post infection. The final concentration of DMSO in each well was 2%. The HepaRGd cells used in the inhibition study were maintained in differentiation media containing 2% DMSO.

[6] = test system: HBV infected HepaRGd cells; assay: Cell viability by CellTiter-Glo, direct treatment; type: cell-based
[7] = Solubility and solution stability in buffers by UPLC; type: physicochemical; settings: thermodynamic from solid, read-out: solubility: free-base form of the Formula I compound present per milliliter of buffer solution
Excerpt: Studies have shown that the co-crystals were soluble in water and buffered solvents.
Unlike the tosylate salt, no genotoxic by-products are formed in solutions of the inventive co-crystals.

[8] = 4 weeks/40° C./ambient conditions (closed container)
[9] = read-out: EC50 against HBV DNA secretion, HBV infected HepaRG cell assay
[10] = solid, 1 month, 40° C./75% r.h.
[11] = solid, 2 months, 40° C./75% r.h.

Fumaric acid
Hygroscopicity ([1]; grade in words): slightly
Hygroscopicity ([1]; mass change ±): (±0.6%-m/m)

CC(=O)O[C@@H]1C[C@@H](CO)O[C@H]1n1c(=O)sc2cnc(N)nc21 [free base Formula I-amorphous, 5-amino-2-oxothiazolo[4,5-d]pyrimidin-3(2H)-yl-5-hydroxymethyl tetrahydrofuran-3-yl acetate]
% Area Formula I ([2]; 4 weeks/40° C./75% r.h.): 86.34 % Area
% degradation ([2]; 4 weeks/40° C./75% r.h.): 13.57%
stability grade ([2]; 4 weeks/40° C./75% r.h.): very
% Area Formula I [2, 8]: 98.89 % Area
% degradation [2, 8]: 1.011%
stability grade [2, 8]: (moderately
T0 % Area Formula I ([2]; free base forms, T0): 99.90 % Area

5-amino-3-(2′-O-acetyl-3′-deoxy-β-D-ribofuranosyl)-3H-thiazolo[4,5]pyrimidine-2-one [glutaric acid co-crystal]
Hygroscopicity ([1]; grade in words): slightly
Hygroscopicity ([1]; mass change ±): (±0.3%-m/m)
BCS Class ([3]; Table 1): 1
BCS Class (Stahl et al) [3]: 1

CC(=O)O[C@@H]1C[C@@H](CO)O[C@H]1n1c(=O)sc2cnc(N)nc21 [free base Formula I-crystalline, 5-amino-2-oxothiazolo[4,5-d]pyrimidin-3(2H)-yl-5-hydroxymethyl tetrahydrofuran-3-yl acetate]
% Area Formula I ([4]; 4 weeks at 40° C./75% RH): 99.740 % area
% degradation ([4]; 4 weeks at 40° C./75% RH): −0.030%
Stability ([4]; 4 weeks at 40° C./75% RH): Fairly
% Area Formula I ([4]; 4 weeks at 50° C.): 99.670 % area
% degradation ([4]; 4 weeks at 50° C.): 0.040%
Stability ([4]; 4 weeks at 50° C.): Fairly
% Area Formula I ([4]; Reference 4 weeks at 2-8° C.): 99.710 % area
% Area Formula I ([2]; 4 weeks/40° C./75% r.h.): 99.56 % Area
% degradation ([2]; 4 weeks/40° C./75% r.h.): 0.15%
stability grade ([2]; 4 weeks/40° C./75% r.h.): stable
% Area Formula I [2, 8]: 99.52 % Area
% degradation [2, 8]: 0.19%
stability grade [2, 8]: (stable)
T0 % Area Formula I ([2]; free base forms, T0): 99.71 % Area

CC(=O)OC1CC(CO)OC1n1c(=O)sc2cnc(N)nc21.Cc1ccc(S(=O)(=O)O)cc1 (stereo not shown) [Tosylate Salt, 5-amino-2-oxothiazolo[4,5-d]pyrimidin-3(2H)-yl-5-hydroxymethyl tetrahydrofuran-3-yl acetate]
levels of the de-acetylated form of the Formula I compound and biologically active species in plasma ([5]; monkeys, oral dose of 10 mg/kg, compared with glutaric acid co-crystal): lower levels

IP-10: IFNγ-induced protein 10, chemokine
EC50 (HBV; read-out: EC50, HBV replication inhibitory effect, highest concentration tested): > 115 nM
CC50 [6]: > 115 nM

TNF-α
EC50 (HBV; [9]): 0.085 ± 0.046 nM
EC50 (HBV; read-out: EC50 against HBsAg secretion, HBV infected HepaRG cell assay, unit inferred): 0.32 nM

Nc1ccccc1C(=O)O [2-aminobenzoic acid]
Hygroscopicity ([1]; grade in words): slightly
Hygroscopicity ([1]; mass change ±): (±1.8%-m/m)

IL-6: interleukin 6, cytokine
EC50 (HBV; [9]): 0.027 ± 0.0073 nM
EC50 (HBV; read-out: EC50 against secretion of HBsAg, HBV infected HepaRG cell assay): 0.26 ± 0.02 nM

O=C(O)CCC(=O)C(=O)O [α-ketoglutaric acid]
Hygroscopicity ([1]; grade in words): slightly
Hygroscopicity ([1]; mass change ±): (±0.8%-m/m)
BCS Class (Stahl et al) [3]: 1

CC(=O)O[C@@H]1C[C@@H](CO)O[C@H]1n1c(=O)sc2cnc(N)nc21 [glutaric acid co-crystal, 5-amino-3-(2′-O-acetyl-3′-deoxy-β-D-ribofuranosyl)-3H-thiazolo[4,5]pyrimidine-2-one]
% Area Formula I ([2]; solid, 1 month, 2-8° C.): 99.02 % Area
% degradation ([2]; solid, 1 month, 2-8° C.): −0.08%
% Area Formula I ([2]; solid, 1 month, 40° C.): 99.05 % Area
% degradation ([2]; solid, 1 month, 40° C.): −0.11%
% Area Formula I [2, 10]: 99.14 % Area
% degradation [2, 10]: −0.2%
% Area Formula I ([2]; solid, 1 month, 60° C.): 99.01 % Area
% degradation ([2]; solid, 1 month, 60° C.): −0.07%
% Area Formula I ([2]; solid, 1 month, RT): 98.9 % Area
% degradation ([2]; solid, 1 month, RT): 0.04%
% Area Formula I ([2]; solid, 2 months, 2-8° C., reference for 2 month stability): 99.32** % Area
% Area Formula I ([2]; solid, 2 months, 40° C.): 99.35 % Area
% degradation ([2]; solid, 2 months, 40° C.): −0.04%
% Area Formula I [2, 11]: 99.34 % Area
% degradation [2, 11]: −0.03%
% Area Formula I ([2]; solid, 2 months, 60° C.): 99.56 % Area
% degradation ([2]; solid, 2 months, 60° C.): −0.25%
% Area Formula I ([2]; solid, 2 months, RT): 99.22 % Area
% degradation ([2]; solid, 2 months, RT): −0.10%
T0 % Area Formula I ([2]; solid, T0, reference for 1 month stability): 98.94* % Area
solubility ([7]; aqueous buffer, pH 4.0 buffer): ~8 mg/mL
solubility ([7]; buffer solution, aqueous buffer, pH 7.0 buffered solution): ~22 mg/mL
solubility ([7]; buffer solution, simulated gastric fluid, pH 1.0 buffered solution): > 60 mg/mL
plasma concentration of the de-acetylated form of the Formula I compound compared to tosylate salt ([5]; cynomolgus monkeys, oral, 10 mg/kg): about two-fold
direct inhibition of HBV viral replication (HBV; cultured HepaRG cells): did not inhibit viral replication
